Test results from patent US8772285B2, “Benzothiazoles having histamine H3 receptor activity” (High Point Pharmaceuticals, LLC, priority 2006, dated 2014).
pKi: −log10 of the molar value. Counter-ions that a name gives are not always drawn.

Assays:
human H3 receptor = human H3 receptor (Homo sapiens (Human), UniProt Q9Y5N1); experiment: Functional assay II, [35S]GTPγS assay; assay type: biochemical; details: membranes from CHO cells stably expressing the human H3 receptor
Protocol: The ability of the compounds to bind and interact with the human H3 receptor as agonists, inverse agonists and/or antagonists, is determined by a functional assay, named [^35S]GTPγS assay. The assay measures the activation of G proteins by catalyzing the exchange of guanosine 5′-diphosphate (GDP) by guanosine 5′-triphosphate (GTP) at the -subunit. The GTP-bounded G proteins dissociate into two subunits, GGTP and Gβγ, which in turn regulate intracellular enzymes and ion channels. GTP is rapidly hydrolysed by the G-sub-unit (GTPases) and the G protein is deactivated and ready for a new GTP exchange cycle. […] GTPγS, a non-hydrolysed analogue of GTP, is determined. This process can be monitored in vitro by incubating cell membranes containing the G protein coupled receptor H3 with GDP and [^35S] […] This procedure is repeated twice except for the last homogenization step, the protein concentration is determined, and membranes are diluted to a protein concentration of 2 mg/ml, aliquoted and kept at −80° C. until use.
In order to study the presence and the potency of an inverse agonist/antagonist, the H3-receptor agonist ligand R-α-methyl histamine (RAMHA) is added. The ability of the test compound to counteract the effect of RAMHA is measured. […] The plates are centrifuged at 1500 rpm for 10 min and the radioactivity is measured using a Top-counter. […]

[1] = system: Sprague-Dawley (SD) male rats; experiment: Open cage schedule-fed rat model; assay type: in vivo; details: dose 15 mg/kg p.o.
Protocol: The ability of the present compounds to reduce weight is determined using the in vivo open cage Schedule-fed rat model.
Sprague-Dawley (SD) male rats of an age of about 1½ to 2 months and a weight of about 200-250 g are purchased from Møllegård Breeding and Research Centre A/S (Denmark). On arrival they are allowed some days of acclimatisation before being placed in individual open plastic cages. They are habituated to the presence of food (Altromin pelleted rat chow) in their home cage for only 7 hours each day (from 07.30 to 14.30, seven days a week). Water is present ad libitum. Once the consumption of food has stabilised after 7 to 9 days, the animals are ready for use.
Each animal is used only once to avoid carry-over effects between treatments. During the test sessions, the test compound is administered intraperitoneally or orally 30 min before the start of the sessions. One group of animals is administered the test compound at different doses, and a control group of animals receives vehicle. Food and water intake are monitored at 1, 2 and 3 hours post administration.
Any side effects (manifested as barrel-rolling, bushy fur etc.) may rapidly be detected, since the animals are kept in transparent plastic cages to enable continuous monitoring.

Chain of human H3 receptor (Q9Y5N1 whole entry): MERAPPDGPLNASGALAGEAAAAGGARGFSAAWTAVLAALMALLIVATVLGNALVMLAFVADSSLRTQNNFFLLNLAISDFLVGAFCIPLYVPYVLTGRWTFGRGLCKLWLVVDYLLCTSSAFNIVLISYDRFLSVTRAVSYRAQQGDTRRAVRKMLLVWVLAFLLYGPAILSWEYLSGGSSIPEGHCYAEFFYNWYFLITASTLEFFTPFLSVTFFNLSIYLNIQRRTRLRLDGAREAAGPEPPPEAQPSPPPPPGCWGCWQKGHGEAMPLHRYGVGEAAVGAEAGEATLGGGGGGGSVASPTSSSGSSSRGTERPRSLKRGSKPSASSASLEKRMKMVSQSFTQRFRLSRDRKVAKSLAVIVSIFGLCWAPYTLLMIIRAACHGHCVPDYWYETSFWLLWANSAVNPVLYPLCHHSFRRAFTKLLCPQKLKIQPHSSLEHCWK

SMILES	pKi (human H3 receptor)	Open cage schedule-fed rat model, food intake at 3 h [1]
O=C(O)C(F)(F)F.c1cc2nc(N3CCN(C4CC4)CC3)sc2cc1CN1CCCC1 [Example 17, 2-(4-Cyclopropylpiperazin-1-yl)-6-(pyrrolidin-1-ylmethyl)benzothiazole, trifluoroacetate]	8.74	81.2 % of vehicle
c1cc2nc(N3CCN(C4CC4)CC3)sc2cc1CNC1CC1 [Example 27, Cyclopropyl-[2-(4-cyclopropylpiperazin-1-yl)benzothiazol-6-ylmethyl]-amine, trifluoroacetate]	9.05	82.9 % of vehicle
